Measurements published in patent US20200046763A1, “APPLICATION OF GSK3 INHIBITOR IN PREPARING A DRUG TO TREAT NIEMANN-PICK DISEASE TYPE C” (WUXI HANQIANG PHARMACEUTICAL TECHNOLOGY CO., LTD., priority 2016, published 2020).

Columns and labels:
NPC1 KO mice = assay: Effect of GSK3 inhibitor on NPC1 KO mouse model; type: in vivo; settings: LiCl 85 mg/kg or CHIR99021 20 mg/kg intraperitoneally daily from first week (b9: or same dose intragastrically)
Protocol: NPC1 KO mice are divided into three groups (a control group, a LiCl treatment group and a CHIR99021 treatment group), with five mice in each group. From the first week after birth, the mice in the LiCl treatment group and the CHIR99021 treatment group are intraperitoneally injected with LiCl (85 mg/kg) and CHIR99021 (20 mg/kg) per day respectively, the mice in the control group are intraperitoneally injected with normal saline, and the survival rate of the mice is continuously observed.
An NPC1 gene knock-out (KO) mouse preparation method: the NPC1 genes are knocked out by CRISPY_Cas9 to obtain NPC1−/−mice.
The NPC mouse model is prepared according to the method of Embodiment II, and LiCl (the dose of 85 mg/kg) or CRIR99021 (the dose of 20 mg/kg) is intraperitoneally injected every day from the first week.
The testing indexes are phenotypes of hematological and neurological systems, as well as symptoms and signs.

[1] = test system: NPC1 KD or NPC1 KO hematopoietic and neural stem cells; assay: Effect of GSK3 inhibitor on NP-C cell model (proliferation, stem cell self-renewal and differentiation); type: cell-based, mouse; settings: for self-renewal and differentiation capacities of hematopoietic and neural stem cells: NPC1 KD or NPC1 KO cells, LiCl 10 MM, CHIR99021 3 uM
Protocol: 2) NPC1 gene expression knock-down (KD) human and mouse cells: lentivirus expressing human and mouse NPC1 shRNA is prepared, lentivirus infects human embryonic kidney 293T and Mouse Embryonic Fibroblast (MEF), positive infected cells are screened by puromycin, and qPCR and western blotting validate the effect of NPC1 gene expression knock-down, to obtain the NPC1 KD cell model.
According to the method of Embodiment I, NPC model cells are prepared, and hematopoietic stem cells and neural stem cells of the NPC1 KO mice are isolated.
Experimental procedures and measurement indexes are: treatment of NPC1 KD and NPC1 KO cells with GSK3 specific inhibitors, i.e., LiCl and CHIR99021, and observation of changes in cell proliferation and stern cell self-renewal and differentiation.

[2] = NPC1 KD hematopoietic stem cells, 10 mM LiCl

Structure (SMILES) | hematopoietic function of the mice (NPC1 KO mice) | neurodegenerative change symptoms (NPC1 KO mice) | self-renewal and differentiation capacities of hematopoietic and neural stem cells [1] | increase of colony formation capacity [1, 2] | increase of proliferation capacity of hematopoietic stem cells [1, 2]
Cc1c[nH]c(-c2cnc(NCCNc3ccc(C#N)cn3)nc2-c2ccc(Cl)cc2Cl)n1 [CHIR99021] | significantly improved | significantly improved | significantly improve | – | –
[Cl-].[Li+] [LiCl] | significantly improved | significantly improved | significantly improve | ≥ 30% | ≥ 50%
